Calls of active or inactive are those of the source.
Assays:
[1] = molecular target: Prothrombin (Homo sapiens, UniProt P00734); experiment: Thrombin 1536 HTS Dose Response Confirmation. [Related pubchem assays: 1046 (Thrombin 1536 HTS; hits were confirmed in this assay)]; format: functional
[2] = molecular target: Estrogen receptor beta (Homo sapiens, UniProt Q92731);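 also: recombinant ER-beta bound to coactivator SRC1 peptide in presence of estradiol agonist; inhibitors block coactivator peptide binding and lower the FRET signal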
[3] = molecular target: Cytochrome P450 2C9 (Homo sapiens, UniProt P11712)
[4] = molecular target: Mitogen-activated protein kinase 10 (Homo sapiens, UniProt P53779); experiment: Dose response biochemical screening assay for inhibitors of c-Jun N-Terminal Kinase 3 (JNK3). [Related pubchem assays: 746 ]
Mitogen-activated protein kinase 10, sequence (P53779 whole entry): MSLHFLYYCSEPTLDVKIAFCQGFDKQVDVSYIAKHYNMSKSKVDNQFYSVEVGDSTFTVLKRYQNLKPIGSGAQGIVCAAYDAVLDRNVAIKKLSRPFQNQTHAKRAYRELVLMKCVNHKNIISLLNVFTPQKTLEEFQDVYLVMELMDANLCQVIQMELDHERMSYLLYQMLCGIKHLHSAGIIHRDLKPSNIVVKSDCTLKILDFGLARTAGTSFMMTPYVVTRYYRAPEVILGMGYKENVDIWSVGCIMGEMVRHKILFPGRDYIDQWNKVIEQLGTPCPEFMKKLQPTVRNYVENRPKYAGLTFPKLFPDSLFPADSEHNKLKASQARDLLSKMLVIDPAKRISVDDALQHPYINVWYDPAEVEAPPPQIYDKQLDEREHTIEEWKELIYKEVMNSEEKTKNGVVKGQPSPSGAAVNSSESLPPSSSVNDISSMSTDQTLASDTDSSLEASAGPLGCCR

[5] = molecular target: Cytochrome P450 2C19 (Homo sapiens, UniProt P33261); experiment: Cytochrome panel assay with activity outcomes. Panel member name: p450-cyp2c19 Compounds with AC50 equal or less than 10 uM are considered active; format: functional; conditions: read-out: AC50
Cytochrome P450 2C19, sequence (P33261 whole entry): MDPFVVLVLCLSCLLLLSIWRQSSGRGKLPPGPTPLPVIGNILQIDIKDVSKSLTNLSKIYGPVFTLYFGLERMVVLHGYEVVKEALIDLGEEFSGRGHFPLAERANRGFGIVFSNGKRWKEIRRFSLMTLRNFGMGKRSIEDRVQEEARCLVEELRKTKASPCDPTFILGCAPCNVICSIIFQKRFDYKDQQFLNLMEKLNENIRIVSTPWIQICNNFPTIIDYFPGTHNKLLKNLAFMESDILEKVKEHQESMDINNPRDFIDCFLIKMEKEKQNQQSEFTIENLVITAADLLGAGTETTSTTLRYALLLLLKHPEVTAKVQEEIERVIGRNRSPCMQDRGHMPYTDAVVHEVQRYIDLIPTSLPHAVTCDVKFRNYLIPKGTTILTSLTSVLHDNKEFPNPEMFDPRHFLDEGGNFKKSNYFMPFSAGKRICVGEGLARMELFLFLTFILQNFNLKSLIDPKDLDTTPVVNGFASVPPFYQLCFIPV

[6] = molecular target: Nonstructural protein 1 (Influenza A virus, UniProt Q194T2); format: functional, Influenza A virus (A/California/07/2009(H1N1))
Nonstructural protein 1, sequence (Q194T2 whole entry): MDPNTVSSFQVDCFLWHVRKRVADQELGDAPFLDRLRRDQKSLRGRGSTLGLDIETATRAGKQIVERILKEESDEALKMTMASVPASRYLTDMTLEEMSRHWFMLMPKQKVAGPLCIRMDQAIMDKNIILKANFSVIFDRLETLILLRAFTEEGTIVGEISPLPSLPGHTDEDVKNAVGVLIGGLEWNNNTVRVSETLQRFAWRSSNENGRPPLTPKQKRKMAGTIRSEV

[7] = molecular target: Ras and Rab interactor 1/Tyrosine-protein kinase ABL1 (Homo sapiens, UniProt P00519+Q13671); format: functional;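 also: biochemical TR-FRET dose-response test measuring inhibition of binding between Rin1 and Abl proteins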
[8] = molecular target: Glutathione-S-transferase (Schistosoma japonicum, UniProt Q26513); experiment: GST-antibody interaction or FRET quenching – biochemical, TR-FRET, artefact control for Vif-APOBEC3G degradation inhibitor project, dose response (AID 1117362); format: functional
Glutathione-S-transferase, sequence (Q26513 whole entry): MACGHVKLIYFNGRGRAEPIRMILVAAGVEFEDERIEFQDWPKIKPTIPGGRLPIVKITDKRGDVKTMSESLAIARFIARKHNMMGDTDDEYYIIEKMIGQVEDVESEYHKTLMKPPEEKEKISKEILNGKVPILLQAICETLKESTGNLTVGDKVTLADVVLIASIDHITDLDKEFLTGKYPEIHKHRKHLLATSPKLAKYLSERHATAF

[9] = viability loss in THP-1 monocytes – THP-1 cells, cytotoxicity control for Vif-APOBEC3G degradation inhibitor project, dose response (AID 1117359); format: functional; conditions: THP-1
[10] = molecular target: Induced myeloid leukemia cell differentiation protein Mcl-1 (Homo sapiens, UniProt Q07820); experiment: blockers of MCL1 binding to BIM peptide – biochemical, fluorescence polarization, BIM-BH3 peptide, 1536-well, dose response (AID 2217)
Induced myeloid leukemia cell differentiation protein Mcl-1, sequence (Q07820 whole entry): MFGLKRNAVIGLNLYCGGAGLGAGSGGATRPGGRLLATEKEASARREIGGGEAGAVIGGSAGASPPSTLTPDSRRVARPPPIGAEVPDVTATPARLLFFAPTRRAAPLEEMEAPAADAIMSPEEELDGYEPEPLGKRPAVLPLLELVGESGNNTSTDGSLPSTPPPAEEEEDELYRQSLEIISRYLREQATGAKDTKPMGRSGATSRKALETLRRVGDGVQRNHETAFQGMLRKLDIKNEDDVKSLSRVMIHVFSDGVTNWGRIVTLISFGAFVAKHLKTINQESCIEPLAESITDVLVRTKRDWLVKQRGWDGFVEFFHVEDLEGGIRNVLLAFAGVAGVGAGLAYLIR

[11] = molecular target: Bcl-2-like protein 1 (Homo sapiens, UniProt Q07817); experiment: blockers of BCLXL peptide binding – biochemical, fluorescence polarization, 1536-well, selectivity assay for MCL1 inhibitor project, dose response (AID 2218)
[12] = molecular target: Genome polyprotein (Hepatitis C virus, UniProt Q2Q167); experiment: disruption of hepatitis C core self-association – biochemical, TR-FRET, dose response (AID 2159); parameters: species or system Hepacivirus hominis;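 also: blocks dimerization of HCV core protein measured by TR-FRET between tagged core106 pairs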
Genome polyprotein, sequence (Q2Q167 whole entry): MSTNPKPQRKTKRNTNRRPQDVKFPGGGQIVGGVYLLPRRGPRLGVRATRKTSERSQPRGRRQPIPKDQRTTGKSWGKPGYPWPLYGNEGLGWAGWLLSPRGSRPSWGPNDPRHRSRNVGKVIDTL

[13] = molecular target: Photoreceptor-specific nuclear receptor (Homo sapiens, UniProt Q9Y5X4); experiment: ligands suppressing NR2E3 nuclear receptor activity – biochemical, TR-FRET, dose response (AID 463256); format: functional
Photoreceptor-specific nuclear receptor, sequence (Q9Y5X4 whole entry): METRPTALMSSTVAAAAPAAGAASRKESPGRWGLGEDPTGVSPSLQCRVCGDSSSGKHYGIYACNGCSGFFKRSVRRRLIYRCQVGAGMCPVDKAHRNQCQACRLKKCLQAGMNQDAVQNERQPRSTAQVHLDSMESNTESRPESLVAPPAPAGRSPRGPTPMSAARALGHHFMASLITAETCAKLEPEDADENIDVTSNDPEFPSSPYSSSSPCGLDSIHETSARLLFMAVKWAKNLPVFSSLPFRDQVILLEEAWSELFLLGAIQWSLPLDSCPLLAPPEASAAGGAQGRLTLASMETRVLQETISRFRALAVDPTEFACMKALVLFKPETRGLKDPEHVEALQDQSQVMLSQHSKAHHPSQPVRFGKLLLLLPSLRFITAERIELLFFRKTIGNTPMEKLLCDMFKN

[14] = molecular target: Peroxisome proliferator-activated receptor gamma/Nuclear receptor corepressor 2 (Homo sapiens, UniProt P37231+Q9Y618); experiment: Counterscreen for NR2E3 inverse agonists: TR-FRET-based biochemical high throughput dose response assay to identify inverse agonists of the interaction between peroxisome proliferator-activated receptor gamma (PPARg) and nuclear receptor co-repressor 2 (NCOR2).; format: functional
[15] = growth inhibition of PfATP4-mutant resistant parasites – NITD609-resistant line, SYBR Green, dry powder, dose response (AID 1159571); format: functional, cell-based;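 also: parasites synchronized at ring stage by sorbitol before testing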
[16] = growth inhibition of yeast DHODH-expressing 3D7 parasites – SYBR Green, dry powder samples, dose response (AID 1159570); format: functional, cell-based;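 also: parasite growth measured after 72 hours of compound exposure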
[17] = Plasmodium falciparum Dd2 Sybr green parasite growth Measured in Cell-Based and Microorganism Combination System Using Plate Reader - 2153-01_Inhibitor_Dose_DryPowder_Activity_Set3.; format: functional
[18] = toxicity to human HepG2 hepatoma cells – cell-based, plate reader, dry powder samples, cytotoxicity control, dose response (AID 1159569); format: functional;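 also: inhibitor potency with signal falling toward the positive control level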
[19] = Dd2 malaria parasite growth inhibition potency – SYBR Green, dry powder samples, dose response (AID 1159566); format: functional, cell-based;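 also: potency for growth inhibition with lower SYBR green DNA signal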
[20] = P. falciparum Dd2 growth inhibitors, dose response, SYBR Green, cherry-picked samples (AID 1159567); format: functional, cell-based
[21] = HIV-1 Vif–A3G interaction blockers – biochemical, TR-FRET, GST-Vif 1-94, biotin-A3G peptide, dose response retest, primary screen (AID 1117319); format: functional;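 also: TR-FRET signal of purified GST-Vif binding a biotinylated A3G peptide; inhibitors lower the FRET signal by blocking Vif and A3G binding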
[22] = molecular target: Protein Tat (Human immunodeficiency virus type 1 group M subtype B (isolate HXB2)(HIV-1), UniProt P04608); format: functional;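 also: tat binding to TAR RNA read out by fluorescence polarization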
Protein Tat, sequence (P04608 whole entry): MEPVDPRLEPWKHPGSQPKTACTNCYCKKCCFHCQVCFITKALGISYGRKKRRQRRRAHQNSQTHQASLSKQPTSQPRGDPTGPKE

[23] = molecular target: Large T antigen (Simian virus 40, UniProt P03070); format: functional, Betapolyomavirus macacae;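 also: Confirmatory-stage PubChem screen for compounds that inhibit SV40 T antigen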
Large T antigen, sequence (P03070 whole entry): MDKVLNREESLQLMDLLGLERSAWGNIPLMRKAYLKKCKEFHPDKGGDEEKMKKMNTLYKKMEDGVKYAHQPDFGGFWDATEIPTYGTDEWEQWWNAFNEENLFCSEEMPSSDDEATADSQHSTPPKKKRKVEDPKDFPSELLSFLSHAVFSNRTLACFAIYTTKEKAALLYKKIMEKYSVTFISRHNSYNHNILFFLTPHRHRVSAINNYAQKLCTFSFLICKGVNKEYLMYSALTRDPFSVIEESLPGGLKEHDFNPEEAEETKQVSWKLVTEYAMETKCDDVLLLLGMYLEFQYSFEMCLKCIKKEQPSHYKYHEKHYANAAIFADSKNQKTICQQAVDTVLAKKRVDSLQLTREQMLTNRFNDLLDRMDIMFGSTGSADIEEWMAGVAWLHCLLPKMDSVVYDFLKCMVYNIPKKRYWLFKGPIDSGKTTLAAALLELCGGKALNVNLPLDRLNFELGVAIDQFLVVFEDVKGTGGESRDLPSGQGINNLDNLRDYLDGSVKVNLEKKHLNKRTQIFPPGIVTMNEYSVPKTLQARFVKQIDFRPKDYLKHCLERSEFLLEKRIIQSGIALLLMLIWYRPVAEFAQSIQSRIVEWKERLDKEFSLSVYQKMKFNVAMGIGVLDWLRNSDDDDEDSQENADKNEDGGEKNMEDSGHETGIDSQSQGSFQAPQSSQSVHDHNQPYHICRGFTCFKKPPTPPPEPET

[24] = glucagon-like peptide-1 release potency in STC-1, concentration-response, half-maximal inhibitory concentration in the STC-1 line (AID 1117345); format: functional, cell-based
[25] = Potency on glucagon-like peptide 1 release, dose-response in NCI-H716 cell line, half maximal inhibitory concentration (AID 1117344); format: functional, cell-based
[26] = molecular target: T1, Sphingosine 1-phosphate receptor 2 (Homo sapiens, UniProt O95136); experiment: Dose Response Cell Based Assay for Agonists of the S1P2 Receptor of Purchased Analogues. [Related pubchem assays: 729, 843, 854, 736 ]; format: functional
T1 sequence (O95136 whole entry): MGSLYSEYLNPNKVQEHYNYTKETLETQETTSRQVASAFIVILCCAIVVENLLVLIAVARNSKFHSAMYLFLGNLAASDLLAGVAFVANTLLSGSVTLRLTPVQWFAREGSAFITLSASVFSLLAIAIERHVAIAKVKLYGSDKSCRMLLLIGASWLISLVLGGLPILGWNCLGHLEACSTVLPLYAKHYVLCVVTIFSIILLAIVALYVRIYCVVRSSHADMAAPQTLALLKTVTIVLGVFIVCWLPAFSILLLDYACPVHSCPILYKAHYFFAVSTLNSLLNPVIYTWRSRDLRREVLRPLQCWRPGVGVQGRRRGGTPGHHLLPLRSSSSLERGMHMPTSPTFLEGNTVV

[27] = molecular target: T1, Sphingosine 1-phosphate receptor 2; experiment: Dose Response Cell Based Assay for Antagonists of the S1P2 Receptor. [Related pubchem assays: 856, 736 ]; format: functional
[28] = M. tuberculosis H37Rv growth inhibitors, H37Rv strain (AID 1626); format: functional
[29] = molecular target: NADPH oxidase 1 (Homo sapiens, UniProt Q9Y5S8); experiment: Late-stage luminescence-based cell-based dose response assay to identify inhibitors of NADPH oxidase 1 (NOX1): Synthesized analogs 2.; format: functional
NADPH oxidase 1, sequence (Q9Y5S8 whole entry): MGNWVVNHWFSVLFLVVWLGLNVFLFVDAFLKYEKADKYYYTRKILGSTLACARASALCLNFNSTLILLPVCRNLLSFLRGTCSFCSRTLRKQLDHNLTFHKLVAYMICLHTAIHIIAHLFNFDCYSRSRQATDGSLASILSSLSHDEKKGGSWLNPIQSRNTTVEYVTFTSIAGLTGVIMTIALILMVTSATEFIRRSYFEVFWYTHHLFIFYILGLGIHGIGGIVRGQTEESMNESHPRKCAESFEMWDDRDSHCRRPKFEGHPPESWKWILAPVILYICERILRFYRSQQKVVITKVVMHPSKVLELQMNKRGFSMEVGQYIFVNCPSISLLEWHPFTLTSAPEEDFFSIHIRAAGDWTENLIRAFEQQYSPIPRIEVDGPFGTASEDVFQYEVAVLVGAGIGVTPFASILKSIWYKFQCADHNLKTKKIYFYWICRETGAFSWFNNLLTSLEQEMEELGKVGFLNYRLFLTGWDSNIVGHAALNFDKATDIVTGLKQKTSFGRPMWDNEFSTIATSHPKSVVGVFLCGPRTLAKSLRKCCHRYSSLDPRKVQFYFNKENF

[30] = molecular target: T2, Leucine aminopeptidase (Plasmodium falciparum 3D7, UniProt Q8IL11); experiment: P. falciparum M17LAP inhibitors, primary screen, biochemical, fluorogenic H-Leu-NHMec substrate, 1536-well (AID 1619); format: functional
T2 sequence (Q8IL11 whole entry): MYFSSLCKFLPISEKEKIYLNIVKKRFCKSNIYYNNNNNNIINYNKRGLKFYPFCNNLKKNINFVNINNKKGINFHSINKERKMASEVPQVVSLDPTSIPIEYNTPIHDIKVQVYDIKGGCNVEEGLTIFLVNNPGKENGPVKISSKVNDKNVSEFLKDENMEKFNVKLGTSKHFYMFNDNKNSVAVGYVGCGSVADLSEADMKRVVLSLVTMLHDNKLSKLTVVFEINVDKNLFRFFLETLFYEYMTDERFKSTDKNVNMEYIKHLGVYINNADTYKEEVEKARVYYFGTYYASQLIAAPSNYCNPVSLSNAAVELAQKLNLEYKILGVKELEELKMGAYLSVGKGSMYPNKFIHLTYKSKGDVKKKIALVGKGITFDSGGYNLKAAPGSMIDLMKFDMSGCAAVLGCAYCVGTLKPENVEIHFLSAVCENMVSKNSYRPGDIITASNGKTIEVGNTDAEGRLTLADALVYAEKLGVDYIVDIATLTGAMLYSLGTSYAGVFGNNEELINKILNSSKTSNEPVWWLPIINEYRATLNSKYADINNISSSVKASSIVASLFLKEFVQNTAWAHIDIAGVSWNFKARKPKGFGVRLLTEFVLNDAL

[31] = molecular target: T3, Probable nicotinate-nucleotide adenylyltransferase (Staphylococcus aureus (strain N315), UniProt P65502); format: functional, Staphylococcus aureus subsp. aureus N315; conditions: read-out: IC50_Mean;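 as to IC50 Mean: confirmatory dose-response retesting of NadD inhibitor hits first found in an ultra-high-throughput screen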
T3 sequence (P65502 whole entry): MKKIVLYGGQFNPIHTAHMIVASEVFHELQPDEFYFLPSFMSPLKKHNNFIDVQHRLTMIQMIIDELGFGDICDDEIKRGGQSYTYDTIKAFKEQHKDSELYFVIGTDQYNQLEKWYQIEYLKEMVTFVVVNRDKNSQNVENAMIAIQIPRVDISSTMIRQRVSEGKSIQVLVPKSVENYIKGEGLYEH

[32] = molecular target: Aspartyl aminopeptidase (Plasmodium falciparum 3D7, UniProt Q8I2J3); experiment: Counterscreen for inhibitors of M1 and M17 aminopeptidases: QFRET-based biochemical high throughput dose response assay for inhibitors of the Plasmodium falciparum M18 Aspartyl Aminopeptidase (PFM18AAP). [Related PubChem assays: 1619 (Screening assay (M17LAP inhibitors).), 1445 (Screening assay (M1AAP inhibitors).)]
[33] = molecular target: Procathepsin L (Homo sapiens, UniProt P07711); experiment: CTSL1 protease inhibition – biochemical, QFRET, 1536-well, counter-screen for M1/M17 aminopeptidase inhibitor project, dose response (AID 2214)
[34] = molecular target: T3, Probable nicotinate-nucleotide adenylyltransferase; format: functional, Staphylococcus aureus subsp. aureus N315
[35] = molecular target: 5-hydroxytryptamine receptor 1A (Homo sapiens, UniProt P08908); format: functional
[36] = molecular target: T4, E3 ubiquitin-protein ligase XIAP (Homo sapiens, UniProt P98170); experiment: Counter Screen using XIAP-Bir3 for Chemical Antagonists of Bir1/2 domains of IAP-family anti-apoptotic proteins. [Related pubchem assays (depositor defined):AID1018, AID1449, AID1514, AID1638, AID1749, AID1750, AID488957, AID488963]
T4 sequence (P98170 whole entry): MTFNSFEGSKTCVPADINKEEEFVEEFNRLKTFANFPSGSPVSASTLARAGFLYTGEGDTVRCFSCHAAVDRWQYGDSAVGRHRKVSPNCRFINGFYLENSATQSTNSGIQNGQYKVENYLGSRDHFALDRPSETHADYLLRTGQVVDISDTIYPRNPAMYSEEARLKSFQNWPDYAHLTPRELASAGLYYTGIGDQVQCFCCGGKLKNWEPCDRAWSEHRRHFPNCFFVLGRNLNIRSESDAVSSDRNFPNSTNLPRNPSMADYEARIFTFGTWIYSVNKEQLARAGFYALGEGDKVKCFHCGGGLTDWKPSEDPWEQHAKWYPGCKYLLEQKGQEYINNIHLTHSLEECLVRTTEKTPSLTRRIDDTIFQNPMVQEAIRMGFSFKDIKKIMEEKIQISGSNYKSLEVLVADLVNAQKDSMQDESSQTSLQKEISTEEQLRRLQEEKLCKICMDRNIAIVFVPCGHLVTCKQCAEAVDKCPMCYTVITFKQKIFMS

[37] = molecular target: T4, E3 ubiquitin-protein ligase XIAP; experiment: small molecules displacing peptide from XIAP – biochemical, IAP family, fluorescence polarization (AID 1018); format: functional

## NC(=Nc1nc2ccccc2o1)NC(=O)c1ccccc1NC(=O)c1ccccc1
[1]
  IC50: > 50 µM (inconclusive)
[2]
  IC50: > 50 µM (not active)

## Fc1ccc2nc3[nH]c4ccccc4c3nc2c1
[3]
  AC50: 10 µM (inconclusive)
[4]
  IC50: 18.4 µM (not active)
[5]
  AC50: 20 µM (inconclusive)

## CCc1cccc(NC(=O)CCCCCC2NC(=O)NC2C)c1 (configuration not stated)
[6]
  IC50: 0.825 µM (active)
[7]
  IC50: 0.00897 µM (active)
[8]
  IC50: 9.93 µM (active)
[9]
  CC50: > 40 µM (active)

## Clc1cccc(C2Nc3cccc4cccc(c34)N2)c1
[10]
  IC50: 28.6 µM (not active)
[11]
  IC50: > 109 µM (not active)

## CCOC(=O)c1sc(NC(=S)NC(=O)C2CC2)cc1C
[12]
  IC50: > 49.8 µM (not active)

## CN(C)c1ccc(C#Cc2ccc3cc(CCO)oc(=O)c3c2)cc1
[13]
  IC50: > 39.8 µM (not active)
[14]
  IC50: > 39.8 µM (not active)

## N#C[C@@H]1[C@H](c2ccc(C3=CCCC3)cc2)[C@@H](CO)N1C(=O)NC1CCCC1
[15]
  AC50: 0.694 µM (active)
[16]
  AC50: 15.8 µM (active)
[17]
  AC50: 0.647 µM (active)
[18]
  AC50: 82 µM (active)
[19]
  AC50: 0.395 µM (active)
[20]
  AC50: 0.615 µM (active)

## COc1ccc(-n2c(Cc3cccn3C)nnc2SCC(N)=O)cc1
[21]
  IC50: > 100 µM (active)
[22]
  IC50: > 100 µM (active)

## O=C1OC2(c3ccccc31)c1cc(I)c(O)c(I)c1Oc1c2cc(I)c(O)c1I [ERYTHROSINE]
[23]
  IC50: 13 µM (active)
[24]
  IC50: 2.93 µM (active)
[25]
  IC50: > 40 µM (inactive)

## Cc1ccc(C(=O)OCC(=O)c2cc(C)n(Cc3ccccc3)c2C)o1
[26]
  EC50: > 30 µM (not active)

## O=C(O)c1sc2cc(C(F)(F)F)cnc2c1-c1cccnc1
[27]
  IC50: > 30 µM (not active)

## CCOc1ccc(NC(=O)N(C2CCCCC2)C2CCN(C(C)=O)CC2)cc1
[28]
  IC50: > 100 µM (active)

## CN1c2ccccc2Sc2cc(NC(=O)CCl)ccc21
[29]
  IC50: 0.653 µM (active)

## Cc1ccc(Nc2nnc(SC/C(O)=C(\C#N)c3nc4ccccc4[nH]3)s2)c(C)c1
[30]
  IC50: 6.03 µM (active)
[31]
  IC50: 21.4 µM (active)
[32]
  IC50: > 73.5 µM (not active)
[33]
  IC50: > 59.6 µM (not active)
[34]
  IC50: 7.79 µM (active)

## CCOC(=O)c1oc2ccccc2c1NC(=O)c1cc(OC)cc(OC)c1
[35]
  EC50: > 50 µM (not active)

## CCCNC(=O)c1cc(SC)ccc1Cl
[36]
  IC50: > 100 µM (inactive)
[37]
  IC50: > 100 µM (not active)

— ChEMBL document CHEMBL1201862, “PubChem BioAssay data set” (2004)
